Where only a bound is given, the exact number is not on record here.

The results in this text go back to ChEMBL document CHEMBL3132858, “6-Alkyl-, 6-aryl- or 6-hetaryl-7-deazapurine ribonucleosides as inhibitors of human or MTB adenosine kinase and potential antimycobacterial agents” (Medchemcomm, 2013).

This experiment deals with Mycobacterium tuberculosis. Briefly: Antimycobacterial activity against Mycobacterium bovis BCG assessed as inhibition of microbial growth after 120 hrs by MTT assay. It is filed as functional, organism-based. The following applies: variant bovis BCG.

Regarding `OC[C@H]1O[C@@H](n2cc(F)c3c(-c4cc[nH]c4)ncnc32)[C@H](O)[C@@H]1O`, the IC50 was > 100 µM.

Take `OC[C@H]1O[C@@H](n2ccc3c(-c4ccn[nH]4)ncnc32)[C@H](O)[C@@H]1O`: the concentration for half-maximal inhibition (IC50) is 91.1 µM. For the compound `OC[C@H]1O[C@@H](n2ccc3c(-c4ccc[nH]4)ncnc32)[C@H](O)[C@@H]1O`, the IC50 came to 56.4 µM.

As to `OC[C@H]1O[C@@H](n2ccc3c(-c4ccc[se]4)ncnc32)[C@H](O)[C@@H]1O`, the IC50 is > 100 µM. Take `OC[C@H]1O[C@@H](n2cc(F)c3c(-c4cccs4)ncnc32)[C@H](O)[C@@H]1O`: the IC50 is > 100 µM. Under `OC[C@H]1O[C@@H](n2cc(F)c3c(-c4c[nH]cn4)ncnc32)[C@H](O)[C@@H]1O` stands 11.7 µM; under `OC[C@H]1O[C@@H](n2cc(Cl)c3c(-c4ccco4)ncnc32)[C@H](O)[C@@H]1O`, 89.2 µM. Under `OC[C@H]1O[C@@H](n2ccc3c(-c4cccc5c4sc4ccccc45)ncnc32)[C@H](O)[C@@H]1O` stands > 100 µM; under `CCCCCCCCCCCCCCCCCCOP(=O)(O)OC[C@H]1O[C@@H](n2ccc3c(-c4ccccc4)ncnc32)[C@H](O)[C@@H]1O`, > 100 µM.

`OC[C@H]1O[C@@H](n2ccc3c(-c4ccccc4)ncnc32)[C@H](O)[C@@H]1O`: the IC50 was found to be 75.2 µM. Under `CCc1ncnc2c1ccn2[C@@H]1O[C@H](CO)[C@@H](O)[C@H]1O` stands 88.8 µM. Next, `OC[C@H]1O[C@@H](n2cc(Cl)c3c(-c4ccc(F)cc4)ncnc32)[C@H](O)[C@@H]1O`: 89.6 µM. Under `OC[C@H]1O[C@@H](n2ccc3c(Cc4ccccc4)ncnc32)[C@H](O)[C@@H]1O` stands > 100 µM.

In the case of `OC[C@H]1O[C@@H](n2ccc3c(-c4cc5ccccc5[nH]4)ncnc32)[C@H](O)[C@@H]1O`, the IC50 was > 100 µM. On to `OC[C@H]1O[C@@H](n2ccc3c(-c4c[nH]cn4)ncnc32)[C@H](O)[C@@H]1O`, for which the 50% inhibitory concentration (IC50) was found to be 15.6 µM. Next, `OC[C@H]1O[C@@H](n2ccc3c(-c4ccsc4)ncnc32)[C@H](O)[C@@H]1O`: 81 µM. Next, `OC[C@H]1O[C@@H](n2ccc3c(-c4ccoc4)ncnc32)[C@H](O)[C@@H]1O`: 83.7 µM.

On to `CCCCCCCCCCCCCCCCCCOP(=O)(O)OC[C@H]1O[C@@H](n2ccc3c(-c4ccoc4)ncnc32)[C@H](O)[C@@H]1O`, for which the IC50 is 56.6 µM. Under `OC[C@H]1O[C@@H](n2ccc3c(-c4cc5ccccc5s4)ncnc32)[C@H](O)[C@@H]1O` stands > 100 µM; under `OC[C@H]1O[C@@H](n2ccc3c(-c4cccnc4)ncnc32)[C@H](O)[C@@H]1O`, > 100 µM; under `OCc1ncnc2c1ccn2[C@@H]1O[C@H](CO)[C@@H](O)[C@H]1O`, 32.6 µM. Under `CCCCCCCCCCCCCCCCCCOP(=O)(O)OC[C@H]1O[C@@H](n2ccc3c(-c4cc5ccccc5o4)ncnc32)[C@H](O)[C@@H]1O` stands 93.4 µM. `OC[C@H]1O[C@@H](n2cc(F)c3c(-c4nccs4)ncnc32)[C@H](O)[C@@H]1O`: the IC50 came to 69 µM. Under `CCCCCCCCCCCCCCCCCCOP(=O)(O)OC[C@H]1O[C@@H](n2ccc3c(-c4ccco4)ncnc32)[C@H](O)[C@@H]1O` stands > 100 µM; under `OC[C@H]1O[C@@H](n2cc(F)c3c(-c4ccsc4)ncnc32)[C@H](O)[C@@H]1O`, > 100 µM.

Take `OC[C@H]1O[C@@H](n2ccc3c(-c4cn[nH]c4)ncnc32)[C@H](O)[C@@H]1O`: the IC50 was > 100 µM. Turning to `OC[C@H]1O[C@@H](n2ccc3c(-c4cccc5c4Oc4ccccc4S5)ncnc32)[C@H](O)[C@@H]1O`, the IC50 is > 100 µM.

As for `OC[C@H]1O[C@@H](n2cc(F)c3c(-c4ccc[nH]4)ncnc32)[C@H](O)[C@@H]1O`, the IC50 is 45.8 µM. On to `OC[C@H]1O[C@@H](n2ccc3c(-c4ccc(F)cc4)ncnc32)[C@H](O)[C@@H]1O`, for which the IC50 is 93.8 µM. `OC[C@H]1O[C@@H](n2ccc3c(-c4cc5ccccc5o4)ncnc32)[C@H](O)[C@@H]1O`: the IC50 is > 100 µM. Consider `OC[C@H]1O[C@@H](n2cc(F)c3c(-c4ccoc4)ncnc32)[C@H](O)[C@@H]1O`, for which the IC50 worked out at 91.2 µM. Under `OC[C@H]1O[C@@H](n2cc(F)c3c(-c4ccccc4)ncnc32)[C@H](O)[C@@H]1O` stands 74.8 µM; under `OC[C@H]1O[C@@H](n2ccc3c(-c4ccco4)ncnc32)[C@H](O)[C@@H]1O`, > 100 µM; under `OC[C@H]1O[C@@H](n2cc(F)c3c(-c4ccco4)ncnc32)[C@H](O)[C@@H]1O`, 73.2 µM.

In the case of `OC[C@H]1O[C@@H](n2cc(Cl)c3c(-c4ccccc4)ncnc32)[C@H](O)[C@@H]1O`, the IC50 was > 100 µM. Next, `OC[C@H]1O[C@@H](n2cc(Cl)c3c(-c4ccoc4)ncnc32)[C@H](O)[C@@H]1O`: 97.1 µM; `CCCCCCCCCCCCCCCCCCOP(=O)(O)OC[C@H]1O[C@@H](n2ccc3c(-c4ccsc4)ncnc32)[C@H](O)[C@@H]1O`: 82.8 µM; `OC[C@H]1O[C@@H](n2ccc3c(-c4nccs4)ncnc32)[C@H](O)[C@@H]1O`: 80.5 µM. Take `OC[C@H]1O[C@@H](n2cc(Cl)c3c(-c4cccs4)ncnc32)[C@H](O)[C@@H]1O`: the half-inhibitory concentration (IC50) turned out to be 96.4 µM. Next, `OC[C@H]1O[C@@H](n2ccc3c(-c4cc[nH]c4)ncnc32)[C@H](O)[C@@H]1O`: 98.2 µM; `OC[C@H]1O[C@@H](n2cc(Cl)c3c(-c4ccsc4)ncnc32)[C@H](O)[C@@H]1O`: 99.6 µM; `COc1ccc(-c2ncnc3c2ccn3[C@@H]2O[C@H](CO)[C@@H](O)[C@H]2O)cc1`: 56.9 µM. Next, `OC[C@H]1O[C@@H](n2ccc3c(-c4cccc5c4oc4ccccc45)ncnc32)[C@H](O)[C@@H]1O`: > 100 µM; `OC[C@H]1O[C@@H](n2ccc3c(-c4cccs4)ncnc32)[C@H](O)[C@@H]1O`: > 100 µM; `OC[C@H]1O[C@@H](n2ccc3c(-c4ccccn4)ncnc32)[C@H](O)[C@@H]1O`: 38.2 µM.
